Test results from US20040157930A1, “Histone deacetylase enzyme-inhibiting derivatives of hydroxamic acid as new cytokine synthesis-inhibiting anti-inflammatory drugs” (priority 2001, published 2004).

System: Con A-induced liver injury
Test: Con A-induced liver injury, serum ALT
Type: in vivo, C57B16 mice
Settings: single dose 50 mg/kg i.p. 1 h before Con A i.v.; vehicle 15.190±2.580
Description: After 24 h, serum amino-alanine transferase was measured. Intravenous injection of Con A results in hepatic cell death within 12-24 h with markedly elevated serum levels of hepatic enzymes such as alanine amino transaminase (ALT).

Structure (SMILES): O=C(CCCCCCC(=O)Nc1ccccc1)NO [SAHA, suberoylanilide hydroxamic acid]
- 24-h level of serum ALT (mean±SE): 8.144±2.091 units/liter
